Data from patent US20090221441A1, “THREE-DIMENSIONAL CELLULAR ARRAY CHIP AND PLATFORM FOR TOXICOLOGY ASSAYS” (Rensselaer Polytechnic Institute, priority 2005, published 2009).
Entries after “also recorded” stand apart in the source; their conditions may differ.

Tests used:
[1] = in vitro; conditions: human
Procedure: (§1) The cytotoxicity of drugs (or drug metabolites) was determined by staining the slide containing the cells with a Live/Dead test kit (Molecular Probes) that produces a green fluorescent response from living cells. At the end of the 3-day culture period post stamping, the three-dimensional cell chip (DataChip) was rinsed three times in PBS for 5 min each. One mL of a dye solution containing 0.5 μM calcein AM was applied to each three-dimensional cell chip using a glass slide with 1 mm thick perimeter gasket acting as a barrier to prevent loss of the dye solution.
(§2) Following incubation for 50 minutes at room temperature, excess dye in the collagen-gel drops was removed by incubating the slides in a petri dish containing 16 mL of PBS for 30 min on a gyratory shaker at 60 rpm. The three-dimensional cell chip was dried thoroughly with nitrogen. The three-dimensional cell chip was scanned with the GenePix® Professional 4200A scanner equipped with blue laser and standard blue filter to determine the green fluorescent intensity and was quantified from the scanning image using GenePix Pro 6.0 (Molecular Devices Co.).
(§3) Percent live cells=(FReaction/FMax)×100
(§4) where FReaction is the green fluorescence intensity of the reaction spot and FMax is the green fluorescence intensity of untreated fully viable cells.
(§5) For efficient stamping, MTMOS-coated glass slides were prepared to contain a sol-gel barrier on the periphery of the slides.
(§6) To this end […] of methyltrimethoxysilane (MTMOS) sol was prepared by mixing 2 mL of MTMOS with 1 mL of HCl (10 mM) and sonicated for 10 min. The sol was spotted on the periphery of the MTMOS-coated slide and then the slide was baked in an oven for 30 min at 120° C.
(§7) The MetaChip was stored at −80° C. for 1 day prior to use. Cytotoxicity studies were performed by spotting 20 nL of test compound in distilled water (0-2 mM) onto the MetaChip spots and partially dried.
(§8) This was followed by stamping of the three-dimensional cell chip (DataChip) containing either MCF7 or Hep3B cells onto the MetaChip.
(§9) To this end, a MetaChip consisting of 20×54 alginate spots was prepared; each spot containing a single human P450 isoform (CYP1A2, CYP2D6, or CYP3A4), a mixture of the three isoforms, or no P450 as a test compound only control. Addition of test compounds was carried out by overlay spotting of solutions of these compounds onto the MetaChip, which was then stamped on top of the DataChip.
(§10) Using three DataChips in combination with three MetaChips, IC50 values for 27 compounds and their P450-generated metabolites against human Hep3B cells were determined. […] The three P450 isoforms were used along with an equimolar mixture of the three isoforms and a test compound only control without P450. The test compounds were added to the MetaChip, which was then stamped onto the DataChip and incubated for 6 h. This was followed by removing the DataChip, rinsing with growth medium, incubating in media for 3 days, and then stained for cell viability.

[2] = tested on: human Hep3B cells; experiment: Cytotoxicity of compounds and their P450-generated metabolites, Hep3B DataChip stamped with MetaChip
Procedure: as §1, §2, §3, §4, §5, §6, §7, §8, §9, §10

[3] = P450 activity determination with blue fluorogenic substrates in 384-well plate; assay type: biochemical, human
Procedure: To assess the intrinsic reactivity of P450s in alginate matrices, reactions were performed in wells of a 384-well plate. P450-containing alginate sol was prepared by dispensing 24 μL of P450 baculosomes (1 nmol P450/mL), 36 μL of distilled water, and 60 μL of alginate (2%) in distilled water. Five microliters of this solution were spotted onto 5 μL of the dried PLL-barium spot in a 384-well. Followed by storage of the P450-alginate gel drops at −80° C. for 1 day, 25 μL of blue fluorogenic substrates (BOMCC for CYP3A4 and EOMCC for CYP1A2 and CYP2D6) containing 250 μM NADP^+ and its regeneration system (8 mM glucose-6-phosphate and 1 U/mL glucose-6-phosphate dehydrogenase) in 50 mM potassium phosphate buffer (pH 8) were dispensed onto the thawed P450-alginate gel drop.
As a control, soluble P450 without alginate was also used. The blue fluorescent 7-hydroxycoumarin released by P450-catalyzed oxidation of BOMCC or EOMCC was monitored as a function of time using a BioAssay Reader HTS 7000 Plus (Perkin Elmer, Norwalk, Conn.) at an excitation wavelength of 430 nm and emission wavelength of 497 nm.

[4] = IC50, CYP1A2, Hep3B DataChip, MetaChip spots with CYP1A2
[5] = IC50, CYP2D6, Hep3B DataChip, MetaChip spots with CYP2D6
[6] = IC50, CYP3A4, Hep3B DataChip, MetaChip spots with CYP3A4
[7] = IC50, Mixture, Hep3B DataChip, equimolar mixture of CYP1A2, CYP2D6, CYP3A4
[8] = IC50, No P450, Hep3B DataChip, test compound only control without P450
[9] = Hep3B cells, compared with no P450
[10] = Soluble enzyme (control, in solution)

| Compound | IC50 at 6 h [1, 4] [µM] | IC50 at 6 h [1, 5] [µM] | IC50 at 6 h [1, 6] [µM] | IC50 at 6 h [1, 7] [µM] | IC50 at 6 h [1, 8] [µM] | Activation or deactivation of the toxic response by CYP1A2 [2] | Activation or deactivation of the toxic response by CYP2D6 [2] | further results |
| --- | --- | --- | --- | --- | --- | --- | --- | --- |
| CC(=O)CC(c1ccccc1)c1c(O)c2ccccc2oc1=O (stereo not drawn) [Warfarin] |  |  |  |  |  |  |  | IC50 at 6 h ([1]; IC50, CYP1A2): > 1000 µM; IC50 at 6 h ([1]; IC50, CYP2D6): > 1000 µM; IC50 at 6 h ([1]; IC50, CYP3A4): > 1000 µM; IC50 at 6 h ([1]; IC50, Mixture): > 1000 µM; IC50 at 6 h ([1]; IC50, No P450): > 1000 µM |
| C=C[C@H]1C[N@@]2CC[C@H]1C[C@@H]2[C@@H](O)c1ccnc2ccc(OC)cc12 [Quinidine] | 92.9 ± 7.5 | 106 ± 9.05 | 126 ± 10.2 | 246 ± 39.4 | 19.2 ± 2.36 |  |  | Activation or deactivation of the toxic response by the mixture of the three P450 isoforms ([2]; Hep3B cells): greater deactivation in the mixture than with any of the three individual isoforms; Activation or deactivation of the toxic response by CYP1A2 [2, 9]: moderately to weakly deactivated; Activation or deactivation of the toxic response by CYP2D6 [2, 9]: deactivating; Activation or deactivation of the toxic response by CYP3A4 [2, 9]: deactivated |
| Oc1c(Cl)c(Cl)c(Cl)c(Cl)c1Cl [Pentachlorophenol] |  |  |  |  |  |  |  | IC50 ([1]; IC50, CYP1A2): > 1000 µM; IC50 ([1]; IC50, CYP2D6): > 1000 µM; IC50 ([1]; IC50, CYP3A4): > 1000 µM; IC50 ([1]; IC50, Mixture): 489 ± 272 µM; IC50 ([1]; IC50, No P450): > 1000 µM |
| Cn1c(=O)c2[nH]cnc2n(C)c1=O [Theophylline] | 239 ± 56.4 | 119 ± 26.3 | 36.9 ± 11.2 | 84.3 ± 22.1 | 38.4 ± 8.92 | moderately to weakly deactivated | deactivating |  |
| O=P1(N(CCCl)CCCl)NCCCO1 (stereo not drawn) [Cyclophosphamide, cyclophosphamide] | > 1000 | > 1000 | 2110 ± 600 | > 1000 | > 1000 |  |  | Activation or deactivation of the toxic response by CYP3A4 [2, 9]: strongly activated |
| Cl[C@H]1[C@H](Cl)[C@@H](Cl)[C@@H](Cl)[C@H](Cl)[C@H]1Cl [Lindane] | 2730 ± 1080 | 5150 ± 1960 | 523 ± 133 | > 1000 | 394 ± 132 | moderately to weakly deactivated | deactivating lindane (strongly) | Activation or deactivation of the toxic response by the mixture of the three P450 isoforms [2]: greater deactivation in the mixture than with any of the three individual isoforms |
| CC(=O)Nc1ccc(O)cc1 [Acetaminophen, acetaminophen] | 2590 ± 960 | > 1000 | 2770 ± 1240 | > 1000 | > 1000 | strongly activated |  | Activation or deactivation of the toxic response by CYP3A4 [2]: strongly activated; IC30 [2]: (IC30: 0.50 ± 0.02) |
| NNC(=O)c1ccncc1 [Isoniazid] | 353 ± 89.9 | > 1000 | > 1000 | > 1000 | > 1000 |  |  |  |
| C[C@H]1O[C@@H](O[C@H]2[C@@H](O)C[C@H](O[C@H]3[C@@H](O)C[C@H](O[C@H]4CC[C@@]5(C)[C@H](CC[C@@H]6[C@@H]5C[C@@H](O)[C@]5(C)[C@@H](C7=CC(=O)OC7)CC[C@]65O)C4)O[C@@H]3C)O[C@@H]2C)C[C@H](O)[C@@H]1O [Digoxin] | 1.29 ± 0.09 | 0.43 ± 0.03 | 1.37 ± 0.05 | 0.59 ± 0.03 | 0.8 ± 0.09 |  |  | IC50 at 6 h ([1]; IC50 values, Hep3B DataChip): < 1 µM |
| C[n+]1ccc(-c2cc[n+](C)cc2)cc1 [Paraquat, paraquat] |  |  |  |  |  |  |  | IC50 [1, 4]: 5.06 ± 0.29 µM; IC50 [1, 5]: 20.8 ± 1.8 µM; IC50 [1, 6]: 52 ± 9.12 µM; IC50 [1, 7]: 44.2 ± 6.05 µM; IC50 [1, 8]: 79.8 ± 12.7 µM; Activation or deactivation of the toxic response by the mixture of the three P450 isoforms ([2]; Hep3B cells): activation; Activation or deactivation of the toxic response by CYP1A2 [2, 9]: activation; Activation or deactivation of the toxic response by CYP2D6 [2, 9]: activation; also recorded: activated |
| CN(C)CCC=C1c2ccccc2CCc2ccccc21 [Amitriptyline] | 75 ± 14.2 | 55.9 ± 10.1 | 63.4 ± 12.1 | 75.6 ± 9.89 | 31.7 ± 1.98 | moderately to weakly deactivated |  |  |
| CN(Cc1cnc2nc(N)nc(N)c2n1)c1ccc(C(=O)N[C@@H](CCC(=O)O)C(=O)O)cc1 [Methotrexate] | 2.79 ± 0.73 | 38.3 ± 12.1 | 10.9 ± 2.76 | 8 ± 2.97 | 2.41 ± 0.55 |  | deactivating | Activation or deactivation of the toxic response by CYP3A4 [2]: deactivated |
| CC(=O)O[C@H]1C(=O)[C@@]2(C)[C@H]([C@H](OC(=O)c3ccccc3)[C@]3(O)C[C@H](OC(=O)[C@H](O)[C@@H](NC(=O)c4ccccc4)c4ccccc4)C(C)=C1C3(C)C)[C@]1(OC(C)=O)CO[C@@H]1C[C@@H]2O [Paclitaxel, paclitaxel] |  |  |  |  |  |  | deactivating |  |
| Nc1ccn([C@@H]2O[C@H](CO)[C@@H](O)[C@@H]2O)c(=O)n1 [Cytarabine] |  |  |  |  |  | moderately to weakly deactivated | deactivating |  |
| CN1CCCC1c1cccnc1 (stereo not drawn) [Nicotine] |  |  |  |  |  | moderately to weakly deactivated | deactivating | IC50 ([1]; IC50, CYP1A2): 90.8 ± 20.3 µM; IC50 ([1]; IC50, CYP2D6): 158 ± 39.5 µM; IC50 ([1]; IC50, CYP3A4): 647 ± 191 µM; IC50 ([1]; IC50, Mixture): 377 ± 147 µM; IC50 ([1]; IC50, No P450): 29.5 ± 4.12 µM; Activation or deactivation of the toxic response by CYP3A4 [2]: deactivated chloroquine, quinidine, nicotine (strongly) |
| CCN(CC)CCCC(C)Nc1ccnc2cc(Cl)ccc12 (stereo not drawn) [Chloroquine] | 184 ± 19.9 | 112 ± 22.3 | 79.7 ± 12.8 | 94.5 ± 14.1 | 189 ± 25.2 |  |  | Activation or deactivation of the toxic response by CYP3A4 [2, 9]: deactivated |
| O=c1[nH]c(=O)n(C2CCCO2)cc1F (stereo not drawn) [Tegafur, 5-fluoro-1-(tetrahydro-2-furfuryl)-uracil] | > 1000 | > 1000 | 54800 ± 21400 | > 1000 | > 1000 |  |  |  |
| CYP3A4: human P450 isoform (baculosomes), soluble or encapsulated in alginate; assayed with BOMCC |  |  |  |  |  |  |  | Km ([3]; In Alginate): 35.4 ± 8.98 µM; kcat ([3]; In Alginate): 0.0775 ± 0.0145 s⁻¹; Km [3, 10]: 33.7 ± 2.94 µM; kcat [3, 10]: 0.125 ± 0.008 s⁻¹ |
| CC(=O)Oc1ccccc1C(=O)O [Acetylsalicylic Acid] | > 1000 | > 1000 | > 1000 | > 1000 | > 1000 |  |  |  |
